Laboratory results taken from paper PMC9841531, “Indole Derivatives as New Structural Class of Potent and Antiproliferative Inhibitors of Monocarboxylate Transporter 1 (MCT1; SLC16A1)” (Journal of Medicinal Chemistry, 2022).

How the values were obtained:
Assay type in all cases: cell-based
A-549 cells = experiment: cell cycle distribution analysis, PI flow cytometry; settings: 5 μM, 24 h
Experimental: The antineoplastic agent 33 (5 μM) was used as a reference. […] Compound 24 caused a disruption of the cell cycle of A-549 cancer cells, indicated by a shift from the predominant G0/G1 phase (Figure 8A) to the apoptotic sub-G1 phase as well as the G2/M phase (Figure 8B). A similar G2/M arrest could be observed for reference compound 33 (Figure 8C); however, MCT1 inhibitor 24 led to a larger fraction of cells into the sub-G1 phase, indicating induced apoptosis. This experiment discovered that compound 24 inhibits cell proliferation, causing cell cycle arrest and, eventually, apoptosis. To confirm our findings, we conducted an apoptosis assay using compound 24.
A standard PI staining procedure was used as described earlier[44]−[46] to determine the effect of compounds 24 and 33 on cell cycle progression, followed by flow cytometry analysis (FACS Aria SORP and FACS Aria Fusion, BD Biosciences, Franklin Lakes, NJ). In brief, A-549 cells were seeded onto a 6-well plate (250,000 cells/well) and incubated for 24 h at 37 °C under a 5% CO2-humidified atmosphere before being observed under a microscope. The cells were treated with compound 24 (5 μM) or 33 (5 μM) and further incubated for 24 h at 37 °C under a 5% CO2-humidified atmosphere. Then, the cells were harvested and washed twice with cold PBS (Genetix Biotech Asia, New Delhi, India) before being fixed overnight in ice-cold 70% (v/v) ethanol at 4 °C. The cells were again washed two times with PBS and subsequently resuspended with RNase (100 μg/mL; HiMedia, Mumbai, India) and their DNA was stained with PI (40 μg/mL; Sigma-Aldrich, Mumbai, India) before being incubated in the dark for 10 min. The DNA content was measured at the Indian Institute of Technology Bombay (IITB, Mumbai, India) by applying flow cytometry.

ABCB1 (P-gp) = ABCB1 (P-gp) (Homo sapiens, UniProt P08183); experiment: daunorubicin assay, ABCB1-expressing A2780/ADR cells; settings: human, ABCB1-expressing A2780/ADR cells, probe daunorubicin (3 μM final); relative to reference inhibitor 34 = 100%; read-out: maximal inhibition (Imax), ABCB1 daunorubicin
Chain of ABCB1 (P-gp) (P08183 whole entry): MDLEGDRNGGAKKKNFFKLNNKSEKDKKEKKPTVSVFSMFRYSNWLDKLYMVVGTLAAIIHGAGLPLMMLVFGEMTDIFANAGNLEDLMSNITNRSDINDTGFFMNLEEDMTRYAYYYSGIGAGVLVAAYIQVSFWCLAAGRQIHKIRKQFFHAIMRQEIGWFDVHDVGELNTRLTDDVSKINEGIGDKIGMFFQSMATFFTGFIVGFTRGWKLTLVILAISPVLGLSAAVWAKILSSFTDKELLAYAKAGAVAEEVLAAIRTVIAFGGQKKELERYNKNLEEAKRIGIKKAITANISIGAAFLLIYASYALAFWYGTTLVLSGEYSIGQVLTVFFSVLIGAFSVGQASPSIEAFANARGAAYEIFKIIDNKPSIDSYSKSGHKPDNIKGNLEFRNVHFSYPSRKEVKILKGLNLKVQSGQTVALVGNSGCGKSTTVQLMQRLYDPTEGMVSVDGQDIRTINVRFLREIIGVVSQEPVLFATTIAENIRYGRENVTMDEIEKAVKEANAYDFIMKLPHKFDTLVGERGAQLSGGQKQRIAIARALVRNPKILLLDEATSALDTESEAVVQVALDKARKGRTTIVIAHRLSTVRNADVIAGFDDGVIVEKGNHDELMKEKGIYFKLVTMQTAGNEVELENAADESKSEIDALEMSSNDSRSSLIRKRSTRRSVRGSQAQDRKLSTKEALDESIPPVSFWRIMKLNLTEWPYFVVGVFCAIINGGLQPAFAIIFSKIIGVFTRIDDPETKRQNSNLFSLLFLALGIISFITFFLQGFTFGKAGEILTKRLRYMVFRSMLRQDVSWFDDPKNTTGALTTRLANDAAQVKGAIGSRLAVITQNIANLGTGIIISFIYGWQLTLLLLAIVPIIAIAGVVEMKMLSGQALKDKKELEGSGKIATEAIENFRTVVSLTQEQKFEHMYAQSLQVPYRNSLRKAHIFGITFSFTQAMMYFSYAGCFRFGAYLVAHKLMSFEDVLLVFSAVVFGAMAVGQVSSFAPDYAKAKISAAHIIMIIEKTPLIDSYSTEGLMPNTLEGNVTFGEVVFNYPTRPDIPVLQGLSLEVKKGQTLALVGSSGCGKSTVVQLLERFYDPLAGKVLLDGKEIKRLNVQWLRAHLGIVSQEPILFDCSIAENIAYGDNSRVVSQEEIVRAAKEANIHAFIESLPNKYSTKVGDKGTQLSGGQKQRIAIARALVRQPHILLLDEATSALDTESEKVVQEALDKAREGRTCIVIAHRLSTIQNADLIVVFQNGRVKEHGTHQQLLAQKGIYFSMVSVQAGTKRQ

[1] = target: ABCB1 (P-glycoprotein, P-gp) (Homo sapiens, UniProt P08183); experiment: as above; settings: human, ABCB1-expressing A2780/ADR cells, probe daunorubicin (3 μM final); relative to reference inhibitor 34 = 100%; read-out: maximal inhibition (Imax), ABCB1 daunorubicin
Chain of ABCB1 (P-glycoprotein, P-gp) (P08183 whole entry): as above

SMILES | cells in G0/G1 phase (A-549 cells) | cells in G2/M phase (A-549 cells) | cells in S phase (A-549 cells) | cells in Sub-G1 phase (A-549 cells) | inhibition at 180 min (ABCB1 (P-gp)) | inhibition at 180 min [1]
COC(=O)/C(C#N)=C/c1cn(CC(=O)Nc2ccc(OC)cc2)c2ccccc12 [Compound 24, Methyl-2-cyano-3-(1-(2-((4-methoxyphenyl)amino)-2-oxoethyl)-1H-indol-3-yl) Acrylate] | 38.1% | 22.3% | 18.0% | 20.6% | 84% | –
COC(=O)/C(C#N)=C/c1cn(CC(=O)Nc2ccc(C)cn2)c2ccccc12 [Compound 30, Methyl-2-cyano-3-(1-(2-((5-methylpyridin-2-yl)amino)-2-oxoethyl)-1H-indol-3-yl) Acrylate] | – | – | – | – | – | 93.3%
